#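 96-well plates; 48 h exposure; 5 concentrations. Endpoints by linear interpolation between flanking doses. Not reached: highest tested concentration assigned. At the GI50, growth is halved. At the TGI there is no net growth.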
# Columns and labels:
# Assay in all cases: inhibition of tumour cell growth, NCI panel, 48 h
# [1] = test system: 786-0 renal
# [2] = test system: A498 renal
# [3] = test system: A549 NSCLC
# [4] = test system: ACHN renal
# [5] = test system: BT-549 breast
# [6] = test system: CAKI-1 renal
# [7] = test system: CCRF-CEM leukemia
# [8] = test system: COLO 205 colon
# [9] = test system: DU-145 prostate
# [10] = test system: EKVX NSCLC
# [11] = test system: HCC-2998 colon
# [12] = test system: HCT-116 colon
# [13] = test system: HCT-15 colon
# [14] = test system: HL-60(TB) leukemia
# [15] = test system: HOP-62 NSCLC
# [16] = test system: HOP-92 NSCLC
# [17] = test system: HS 578T breast
# [18] = test system: HT29 colon
# [19] = test system: IGROV1 ovarian
# [20] = test system: K-562 leukemia
# [21] = test system: KM12 colon
# [22] = test system: LOX IMVI melanoma
# [23] = test system: M14 melanoma
# [24] = test system: MALME-3M melanoma
# [25] = test system: MCF7 breast
# [26] = test system: MDA-MB-231 breast
# [27] = test system: MDA-MB-435
# [28] = test system: MOLT-4 leukemia
# [29] = test system: NCI-H226 lung
# [30] = test system: NCI-H23 lung
# [31] = test system: NCI-H460 lung
# [32] = test system: NCI-H522 lung
# [33] = test system: NCI/ADR-RES ovarian
# [34] = test system: OVCAR-3 ovarian
# [35] = test system: OVCAR-4 ovarian
# [36] = test system: OVCAR-5 ovarian
# [37] = test system: OVCAR-8 ovarian
# [38] = test system: PC-3 prostate
# [39] = test system: RPMI-8226 leukemia
# [40] = test system: RXF 393 renal
# [41] = test system: SF-268 CNS
# [42] = test system: SF-295 CNS
# [43] = test system: SF-539 CNS
# [44] = test system: SK-MEL-2 melanoma
# [45] = test system: SK-MEL-28 melanoma
# [46] = test system: SK-MEL-5 melanoma
# [47] = test system: SK-OV-3 ovarian
# [48] = test system: SN12C renal
# [49] = test system: SNB-19 CNS
# [50] = test system: SNB-75 CNS
# [51] = test system: SR leukemia
# [52] = test system: SW-620 colon
# [53] = test system: T-47D breast
# [54] = test system: TK-10 renal
# [55] = test system: U251 CNS
# [56] = test system: UACC-257 melanoma
# [57] = test system: UACC-62 melanoma
# [58] = test system: UO-31 renal
compound,measurement,setting,value
O=C1/C(=C/c2ccccc2F)CN(C(=O)C(Cl)Cl)C/C1=C\c1ccccc1F,GI50,[1],666 nM
same,TGI,[1],2000 nM
same,GI50,[2],1540 nM
same,TGI,[2],3140 nM
same,GI50,[3],1380 nM
same,TGI,[3],3320 nM
same,GI50,[4],327 nM
same,TGI,[4],1090 nM
same,GI50,[5],422 nM
same,TGI,[5],1440 nM
same,GI50,[6],986 nM
same,TGI,[6],2300 nM
same,GI50,[7],106 nM
same,TGI,[7],> 100000 nM
same,GI50,[8],711 nM
same,TGI,[8],2570 nM
same,GI50,[9],1010 nM
same,TGI,[9],2350 nM
same,GI50,[10],451 nM
same,TGI,[10],2060 nM
same,GI50,[11],696 nM
same,TGI,[11],1960 nM
same,GI50,[12],131 nM
same,TGI,[12],286 nM
same,GI50,[13],217 nM
same,TGI,[13],694 nM
same,GI50,[14],363 nM
same,TGI,[14],2250 nM
same,GI50,[15],906 nM
same,TGI,[15],2440 nM
same,GI50,[16],1530 nM
same,TGI,[16],3390 nM
same,GI50,[17],985 nM
same,TGI,[17],5510 nM
same,GI50,[18],271 nM
same,TGI,[18],1060 nM
same,GI50,[19],351 nM
same,TGI,[19],1440 nM
same,GI50,[20],< 40 nM
same,TGI,[20],> 100000 nM
same,GI50,[21],245 nM
same,TGI,[21],685 nM
same,GI50,[22],110 nM
same,TGI,[22],297 nM
same,GI50,[23],387 nM
same,TGI,[23],1610 nM
same,GI50,[24],599 nM
same,TGI,[24],1920 nM
same,GI50,[25],101 nM
same,TGI,[25],983 nM
same,GI50,[26],404 nM
same,TGI,[26],1580 nM
same,GI50,[27],313 nM
same,TGI,[27],1010 nM
same,GI50,[28],329 nM
same,GI50,[29],1400 nM
same,TGI,[29],6850 nM
same,GI50,[30],389 nM
same,TGI,[30],1560 nM
same,GI50,[31],550 nM
same,TGI,[31],2240 nM
same,GI50,[32],281 nM
same,TGI,[32],1060 nM
same,GI50,[33],342 nM
same,TGI,[33],2640 nM
same,GI50,[34],319 nM
same,TGI,[34],1020 nM
same,GI50,[35],526 nM
same,TGI,[35],1830 nM
same,GI50,[36],796 nM
same,TGI,[36],2290 nM
same,GI50,[37],313 nM
same,TGI,[37],1110 nM
same,GI50,[38],296 nM
same,TGI,[38],1080 nM
same,GI50,[39],83.1 nM
same,TGI,[39],935 nM
same,GI50,[40],584 nM
same,TGI,[40],1750 nM
same,GI50,[41],916 nM
same,TGI,[41],3720 nM
same,GI50,[42],391 nM
same,TGI,[42],1520 nM
same,GI50,[43],431 nM
same,TGI,[43],1780 nM
same,GI50,[44],1600 nM
same,TGI,[44],3620 nM
same,GI50,[45],477 nM
same,TGI,[45],1470 nM
same,GI50,[46],533 nM
same,TGI,[46],1640 nM
same,GI50,[47],1650 nM
same,TGI,[47],3280 nM
same,GI50,[48],244 nM
same,TGI,[48],691 nM
same,GI50,[49],349 nM
same,TGI,[49],1460 nM
same,GI50,[50],572 nM
same,TGI,[50],1950 nM
same,GI50,[51],66.5 nM
same,GI50,[52],93 nM
same,TGI,[52],343 nM
same,GI50,[53],710 nM
same,TGI,[53],3970 nM
same,GI50,[54],1610 nM
same,TGI,[54],3020 nM
same,GI50,[55],213 nM
same,TGI,[55],665 nM
same,GI50,[56],1080 nM
same,TGI,[56],3190 nM
same,GI50,[57],378 nM
same,TGI,[57],1080 nM
same,GI50,[58],440 nM
same,TGI,[58],1670 nM
Cc1cc2cc3cc(C)c(N)cc3[n+](C)c2cc1N,GI50,[1],2600 nM
same,TGI,[1],11500 nM
same,GI50,[2],2540 nM
same,TGI,[2],8760 nM
same,GI50,[3],1000 nM
same,TGI,[3],10900 nM
same,GI50,[4],1950 nM
same,TGI,[4],8270 nM
same,GI50,[5],2340 nM
same,TGI,[5],9310 nM
same,GI50,[6],3440 nM
same,TGI,[6],21600 nM
same,GI50,[7],1360 nM
same,TGI,[7],17500 nM
same,GI50,[8],1150 nM
same,TGI,[8],2870 nM
same,GI50,[9],1770 nM
same,TGI,[9],9640 nM
same,GI50,[10],1360 nM
same,TGI,[10],14100 nM
same,GI50,[11],1450 nM
same,TGI,[11],4260 nM
same,GI50,[12],1150 nM
same,TGI,[12],4660 nM
same,GI50,[13],2650 nM
same,TGI,[13],11700 nM
same,GI50,[14],2310 nM
same,TGI,[14],7740 nM
same,GI50,[15],518 nM
same,TGI,[15],4210 nM
same,GI50,[16],1440 nM
same,TGI,[16],5990 nM
same,GI50,[17],1120 nM
same,TGI,[17],8720 nM
same,GI50,[18],1410 nM
same,TGI,[18],6000 nM
same,GI50,[19],2660 nM
same,TGI,[19],15300 nM
same,GI50,[20],1640 nM
same,TGI,[20],9470 nM
same,GI50,[21],1100 nM
same,TGI,[21],4290 nM
same,GI50,[22],1350 nM
same,TGI,[22],3340 nM
same,GI50,[23],1800 nM
same,TGI,[23],4820 nM
same,GI50,[24],2380 nM
same,TGI,[24],6860 nM
same,GI50,[25],476 nM
same,TGI,[25],6080 nM
same,GI50,[26],1590 nM
same,TGI,[26],8390 nM
same,GI50,[27],2210 nM
same,TGI,[27],6420 nM
same,GI50,[28],2580 nM
same,TGI,[28],13600 nM
same,GI50,[29],1170 nM
same,TGI,[29],4700 nM
same,GI50,[30],1090 nM
same,TGI,[30],5110 nM
same,GI50,[31],1010 nM
same,TGI,[31],3260 nM
same,GI50,[32],3240 nM
same,TGI,[32],9310 nM
same,GI50,[33],5560 nM
same,TGI,[33],23400 nM
same,GI50,[34],1550 nM
same,TGI,[34],5660 nM
same,GI50,[35],1520 nM
same,TGI,[35],8780 nM
same,GI50,[36],3940 nM
same,TGI,[36],16000 nM
same,GI50,[37],2260 nM
same,TGI,[37],5880 nM
same,GI50,[38],1700 nM
same,TGI,[38],10300 nM
same,GI50,[39],615 nM
same,TGI,[39],4570 nM
same,GI50,[40],584 nM
same,TGI,[40],4330 nM
same,GI50,[41],2030 nM
same,TGI,[41],6980 nM
same,GI50,[42],1560 nM
same,TGI,[42],11400 nM
same,GI50,[43],2790 nM
same,TGI,[43],7750 nM
same,GI50,[44],3310 nM
same,TGI,[44],8100 nM
same,GI50,[45],1980 nM
same,TGI,[45],4630 nM
same,GI50,[46],762 nM
same,TGI,[46],2080 nM
same,GI50,[47],2090 nM
same,TGI,[47],11000 nM
same,GI50,[48],334 nM
same,TGI,[48],10200 nM
same,GI50,[49],1130 nM
same,TGI,[49],12400 nM
same,GI50,[50],1750 nM
same,TGI,[50],14400 nM
same,GI50,[51],1990 nM
same,TGI,[51],8170 nM
same,GI50,[53],1060 nM
same,TGI,[53],5440 nM
same,GI50,[54],4060 nM
same,TGI,[54],12700 nM
same,GI50,[55],339 nM
same,TGI,[55],3170 nM
same,GI50,[56],1050 nM
same,TGI,[56],7500 nM
same,GI50,[57],1410 nM
same,TGI,[57],3200 nM
same,GI50,[58],2160 nM
same,TGI,[58],11600 nM

# From PubChem BioAssay (NCI)
